Laboratory results as given in US8119614B2, “Substitution derivatives of N6-benzyladenosine, methods of their preparation, their use for preparation of drugs, cosmetic preparations and growth regulators, pharmaceutical preparations, cosmetic preparations and growth regulators containing these compounds” (Ustav Experimentalni Botaniky Akademie Ved Ceske Republiky, priority 2002, dated 2012).
“Also recorded” adds a separate entry of the source. Peptide text beside a SMILES is read from it. * marks the point of attachment. Cbz = O=C(OCc1ccccc1)*; CH2F = FC*

How the values were obtained:
[1] = test system: spring wheat (variety Sandra); assay: Field studies: yield analysis of spring wheat crop; type: in vivo; conditions: spray of 10^−6 molar solution, Control = 100.0
Description: Crops (over the 4-year period) of spring wheat were sown in the experimental fields of Czech Agriculture University (CZU) (region of sugar beet production type) at a seeding rate of 400 germinative grains·m^−2 into ploughed and shoddy soil containing 116.1 mg/kg P, 228.3 mg/kg K, and 211.8 mg/kg Mg (agrochemical analyses were done at Department of Pedology CZU) (interval between ploughing and sowing is usually 3-4 days, longer only in case of adverse weather conditions). Preceding crop was rape. Soil preparation was done by the classical way using skid and harrow and after seeding is rolled.
(§1) Height of plants, leaf area, dry matter, development of vegetation opex—bases of future spike, and number of spikelets were monitored after germination in 14 day intervals, […]. From these primary data, values used in production physiology are derived, as leaf area index LAI, photosynthetic capacity LAD, tillering potential. Experiments with treatment of spring wheat crop (variety Sandra) are carried out on the field (area 10 m^2, four replicates) by spraying 1 litr of 10^−6 molar solution of tested compound (cytokinin) at the transition period from jointing stage to athesis stage (49 DC).
Yield analysis, evaluating spike lenght and seed number per spikelet (Σ Z/K) were carried out for 30 plant per each variant, yield from 1 m^2 and 1000 grain weight (HTS) was determined from 8 replicates, yield per ha was subsequently calculated.

glutamate kinase = assay: Field studies: glutamate kinase activity in spring wheat; type: in vivo; set-up: tested at 1 µM (10^-6 M spray solution); conditions: 6 days after the application, Control = 100.0
Description: as §1
Glutamate kinase activity was determined 6 days after the application. This enzyme was selected because of good corelation of its activity changes and state of transport of endogenous substances (nutrients from roots, assimilates to cariopsis), respiration, energy (adenosintriphosphate) transfer, storage of nutrients, growth and developmental proceses, and also metabolism of proline, which is known from literature to play an important role in adaptation against stress (unsuitable stand, drought, hypersalinity, coldness) and also in regulation of both theoretical and real production (restriction of seed number reduction per spikelet). Enzyme glutamate kinase catalyses to glutamate conversion into γ glutamylphosphate, which is first step of proline biosynthesis from glutamate. Therefore, this enzyme is, as essential precursor of other plant metabolic pathways, marker of stress inhibition. It can be determined spectrofotometrically (Vasáková, 1980). For analysis, acetone powder is prepared from a sample by standard method, subsequently extracted by 0.05M potassium-phosphate buffer pH=7.2 and centrifugated. Glutamate kinase fraction is precipitated using crystalline ammonium sulfate and after dialysis, glutamate kinase activity is determined spectrophotometrically. Proline accumulation increased by stress corresponds as a “feedback” to glutamate kinase inhibition.

Rosa multiflora = assay: In vitro and post vitro multiplication and rooting of rose; type: in vivo
Rosa hybrida ‘Pailin’ = assay: Early shoot senescence inhibition of tissue cultured roses; type: in vivo; conditions: 10 μM in medium
Description: Rosa hybrida ‘Pailin’ (a cut rose) was cultured in 350 ml vessels with a screw on polycarbonate lid. Each culture vessel contained 100 ml autoclaved medium (120° C., 20 min). The cultures were maintained at 23±2° C. under a 16 h photoperiod at […] m^−2 s^−1 PAR. The basal medium (MBR) contained Murashige and Skoog (1962) macroelements, microelements and vitamins, 36.7 mg/l NaFeEDTA, 50 mg/l NaFeEDDHA, […], 30 g/l sucrose, 100 mg/l glycine, 50 mg/l calcium pantothenate, 100 mg/l L-glutamine and 7 g/l agar-agar. This medium was supplemented with 10 μM of the tested cytokinin. New cytokinins were filter sterilised and added after autoclaving the medium in the vessels. 6-Benzylaminopurine (BAP) was used as a standard compound; the control medium didn't contain any cytokinin. After a culture period of 6 weeks, scoring senescence symptoms was started.

HL-60 cells = assay: HL-60 cell proliferation and viability (FDA/PI staining); type: cell-based, human; conditions: 50 μM Z-VAD-FMK with 20 μM 2OH3MeOBAPR, 72 h (FIG. 10)
Description: Cell culture. A suspension of human promyelocytic HL-60 cells was cultured in RPMI-1640 medium supplemented with a 10% calf foetal serum and antibiotics in 5% CO2 atmosphere at 37° C. Cells were maintained at density from 1×10^5 to 6×10^5 cells per ml. HL-60 cells were obtained from ECACC.
Cell viability assay. Double staining with fluorescein diacetate (FDA) and propidium iodide (PI) for discrimination of dead and living cells was used. Cells were stained in growing medium with PI at a concentration 10 μg/ml 5 min later FDA was added at a concentration 1 μg/ml. The percentage of dead cells (i.e., red stained cells) was evaluated using fluorescence microscopy (Mlejnek and Kolman 1999).

[2] = Ex vitro, after four weeks of acclimatising

OC[C@H]1O[C@@H](n2cnc3c(NCc4ccccc4)ncnc32)[C@H](O)[C@@H]1O [BAPR, 6-benzylaminopurine riboside, reference compound]
HTS (%) (1000 grain weight) [1]: 103.8%
Yield(%) [1]: 121.9%
Σ Z/K (%) (seed number per spikelet) [1]: 114.3%
Σ spike/m^2 (%) [1]: 102.7%
GK % (glutamate kinase activity) (glutamate kinase): 154.1%

c1ccc(CNc2ncnc3nc[nH]c23)cc1 [BAP, 6-benzylaminopurine, reference compound]
shoot multiplication and rooting (in words) (Rosa multiflora; 10 μM in medium): high shoot multiplication rate, but the shoots rooted badly
Root number per plant (Rosa multiflora; [2]): 0.6
Total root length per plant (cm) (Rosa multiflora; [2]): 1.1 cm
Flower number per explant (Rosa multiflora; In vitro, 10 μM, 8 weeks): 0.00
Number of new shoots per explant (Rosa multiflora; In vitro, 10 μM, 8 weeks): 3.8
Root number per explant (Rosa multiflora; In vitro, 10 μM, 8 weeks): 0.0
Total root length per explant (cm) (Rosa multiflora; In vitro, 10 μM, 8 weeks): 0.0 cm
senescence / dying of rose explants (in words) (Rosa hybrida ‘Pailin’): the relative number of dead plants looks like a sigmoid curve; also recorded: dead Rosa explant
HTS (%) (1000 grain weight) [1]: 102.0%
Yield(%) [1]: 115.4%
Σ Z/K (%) (seed number per spikelet) [1]: 111.9%
Σ spike/m^2 (%) [1]: 101.1%
GK % (glutamate kinase activity) (glutamate kinase): 108.2%

COC(=O)C[C@H](NC(=O)[C@H](C)NC(=O)[C@@H](NC(=O)OCc1ccccc1)C(C)C)C(=O)CF [Z-VAD-FMK, reference compound] (Cbz-Val-Ala-Asp(OMe)-CH2F)
effect of caspase inhibitor on 2OH3MeOBAPR induced apoptosis and cell death (HL-60 cells): suppress morphological and biochemical characteristics of apoptosis, however it does not inhibit cell death itself

Oc1cccc(CNc2ncnc3nc[nH]c23)c1 [mT, 6-(3-hydroxybenzylamino)purine]
senescence / dying of rose explants (in words) (Rosa hybrida ‘Pailin’): the situation improved
